Experimental data taken from paper PMC6722743, “Whole Conversion of Soybean Molasses into Isomaltulose and Ethanol by Combining Enzymatic Hydrolysis and Successive Selective Fermentations” (Biomolecules, 2019).

Target: T1, RMgase (recombinant alpha-galactosidase) (Rhizomucor miehei, UniProt H8Y263)
T1 construct: codon-optimised synthetic gene with XPR2 signal peptide at 5' end (vector pINA1312), secreted by Yarrowia lipolytica transformant G82; purified by DEAE-Sepharose for pH/temperature profiles
T1 sequence (H8Y263 18-751): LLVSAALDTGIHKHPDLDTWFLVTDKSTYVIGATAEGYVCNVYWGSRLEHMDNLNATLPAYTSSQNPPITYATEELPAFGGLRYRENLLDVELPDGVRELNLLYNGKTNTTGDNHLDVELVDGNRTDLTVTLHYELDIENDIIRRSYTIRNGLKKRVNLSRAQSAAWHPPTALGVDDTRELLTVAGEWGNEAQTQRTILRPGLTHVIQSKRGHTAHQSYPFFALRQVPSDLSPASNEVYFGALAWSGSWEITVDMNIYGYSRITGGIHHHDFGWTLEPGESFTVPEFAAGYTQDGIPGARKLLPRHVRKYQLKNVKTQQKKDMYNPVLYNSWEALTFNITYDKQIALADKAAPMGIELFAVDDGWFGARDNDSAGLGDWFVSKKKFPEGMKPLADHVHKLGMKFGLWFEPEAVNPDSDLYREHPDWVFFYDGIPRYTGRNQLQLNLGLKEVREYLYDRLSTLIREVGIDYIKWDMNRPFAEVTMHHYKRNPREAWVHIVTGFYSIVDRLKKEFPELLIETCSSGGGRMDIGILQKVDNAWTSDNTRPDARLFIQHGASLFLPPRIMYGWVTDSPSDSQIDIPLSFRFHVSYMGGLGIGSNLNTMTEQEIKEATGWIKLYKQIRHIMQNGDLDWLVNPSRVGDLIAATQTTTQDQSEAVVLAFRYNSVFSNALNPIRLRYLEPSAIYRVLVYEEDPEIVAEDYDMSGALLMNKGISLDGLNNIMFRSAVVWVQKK
Assay: sugar hydrolysis, activity of secreted enzyme
Assay type: biochemical

OC[C@H]1O[C@H](OC[C@H]2O[C@H](OC[C@H]3O[C@H](O[C@]4(CO)O[C@H](CO)[C@@H](O)[C@@H]4O)[C@H](O)[C@@H](O)[C@@H]3O)[C@H](O)[C@@H](O)[C@H]2O)[C@H](O)[C@@H](O)[C@H]1O [stachyose]
sugar hydrolysis, activity of secreted enzyme: the α-galactosidase activity using pNPG, stachyose, raffinose and melibiose as substrate
